SMILES strings stand for the structures.

One may read the melting point as the temperature, or range, at which the solid turns liquid.

On to `CN1CCN(CCC(=O)Nc2ccc3c(c2)C(=O)c2cc(NC(=O)CCN4CCN(C)CC4)ccc2C3=O)CC1`, for which the melting point worked out at 284 °C.
Regarding `COc1cc(Cn2[nH]c(N)cc2=O)ccc1Cl`, the melting point is 148 °C.
`O=C(Nc1ccc(Cl)cc1Cl)c1ccccc1SSc1ccccc1C(=O)Nc1ccc(Cl)cc1Cl` had a melting point of 227 to 228 °C.
`CC(C)(C)c1cc(C(=O)Nc2cccc(SCc3cncc4ccccc34)c2)ccc1O` returned a melting point of 205 to 210 °C.
Under `CC1CCCN(C(=O)C2Cc3ccc(F)cc3N2c2ccc(=O)n(C)n2)C1` (stereo not given) stands 219 to 222 °C; under `CS(=O)(=O)c1ccc(S(C)(=O)=O)nc1`, 205 to 207 °C.
As to `CCOC(=O)c1c(Nc2cc(F)ccc2[N+](=O)[O-])sc2cc(C)ccc12`, the melting point lay within 147 to 149 °C.
Regarding `CN(C)/N=C(/C(=O)O)c1ccc(OCCOc2ccc3ccccc3c2)cc1`, the melting point came out at 135 °C.
As to `OCC(O)Cn1cnc2c(Cl)nc3ccccc3c21` (stereo not given), the melting point lay in the range of 223 to 225 °C.
With `CN(C)Cc1nc(CSCCNc2ncc(CC3CCCO3)c(=O)[nH]2)cs1` (stereo not given) the figure was 118 to 123 °C.
On to `CCCCC[C@@H](CNC(=O)Nc1c(OC(C)C)ccc2c1CCCC2)c1cccc2c1OCO2`, for which the melting point was 115 °C.
With `CCCc1nc(C(C)(O)CC)c(C#N)n1C(c1ccccc1)(c1ccccc1)c1ccccc1` (stereo not given), the melting point is more than 120 °C.
With `COC(=O)Nc1cccc(-c2ccc3nncn3n2)c1`, the melting point is 210 to 212 °C.
On to `CCC(=S)NC[C@H]1CN(c2ccc(N3CCN(C(=O)COc4ccc(CN5CCOCC5)cc4)CC3)c(F)c2)C(=O)O1`, for which the melting point is 159 to 160 °C.
With `Cc1ccc(-c2cc(C(F)(F)F)nn2-c2ccc(S(=O)(=O)Cl)cc2)cc1` the figure was 97 to 98 °C; with `CN1CC(=O)NC1=NC(=O)Nc1cccc(Cl)c1`, 180 °C.
`Clc1nccc(-c2ccc(Cl)c(Cl)c2)n1`: the melting point is 126 to 127 °C.
With `C#CCSc1ccncc1` the figure was 55 to 56 °C; with `O=C1Cc2cccc(Sc3ccc(Cl)cc3)c2N1`, 186 to 188 °C; with `OCc1ccc(Nc2nc(Oc3ccccc3)nc(Oc3ccccc3)n2)cc1`, 152 to 154 °C.
Consider `COc1cc2nc(N3CCN(C(=S)Nc4ccccc4)CC3)nc(N)c2cc1OC`, for which the melting point is 138 to 140 °C.
As for `Cn1ccnc1SCc1nc(-c2ccc3c(c2)OCO3)c2cc3c(cc2n1)OCO3`, the melting point lay in the range of 155 to 160 °C.
Turning to `CCCCCCC(O)CCCCCCCCCCCOCC(O)CNCCO` (stereo not given), the melting point fell in the range of 71.8 to 72.5 °C.
Take `Brc1ccc(CN2CCOCC2)cc1`: the melting point lay in the range of 68 to 71 °C.
Consider `CCCCc1ncc(/C=C2\C(=O)NC(=O)N2Cc2cccs2)n1Cc1ccc(C(=O)OC)cc1`, for which the melting point lay in the range of 164 to 165 °C.
On to `CCCCn1c(=O)c2cc(C(=O)OCC)cn2c2ccccc21`, for which the melting point is 146 to 148 °C.
As to `Cc1cnc2c(S(=O)(=O)Cl)cccc2c1`, the melting point lay within 158 to 159 °C.
In the case of `Cc1cc2cc(CN3CCC(CCC(=O)N(C)C)CC3)cnc2cc1NC(=O)c1ccc(-c2ccc(F)cc2)cc1`, the melting point was 193 to 196 °C.
With `O=C(Nc1ccc2oc3c(c2c1)CCCC3)c1ccc([N+](=O)[O-])cc1` the figure was 279 to 280 °C.
On to `CCCCCCCCCCCCCCCCCC(=O)n1cc(F)c(=O)[nH]c1=O`, for which the melting point was 101 °C.
Under `CCCCC(CC)COC(=O)C(C#N)=Cc1ccc(C(=O)O)cc1` (stereo not given) stands 159 to 162 °C.
With `COc1ccc(OC)c(C=CC(=O)C2C(=O)OC(=O)C(C(C)=O)=C2O)c1` (stereo not given) the figure was 194 to 195 °C; with `Clc1ccc(Nc2cncc(-n3ncc4ccccc43)n2)cc1`, 204 to 207 °C.
In turn, `BrCC(Br)c1ccc(C(Br)CBr)cc1` (stereo not given) showed a melting point of 155 to 157 °C.
`CCN(CC)c1cncc(C(=O)Nc2nnn[nH]2)n1` returned a melting point of 217 to 218 °C.
With `O=C1NN=C(c2ccc(C(F)(F)F)cc2)CC1C(F)(F)F` (stereo not given) the figure was 135 to 136 °C.
With `COC1=CC(=O)N(CC(=O)OCc2ccccc2)C1` the figure was 129 to 130 °C.
With `O=S(=O)(COc1ccc(Cl)cc1)c1ccc(Cl)cc1` the figure was 114 °C; with `c1ccc2c(c1)cc1cnc(Nc3ccc(N4CCOCC4)cc3)nn12`, 205 to 210 °C; with `CCCCCCCCCCCCCCCCCCN(OCCCC)C(CCCCCCCCCCCCCCCCC)P(=O)(OCCCC)OCCCC` (stereo not given), 38 to 40 °C.
As to `O=[N+]([O-])c1ccc(CCn2cccn2)cc1`, the melting point lay within 92 to 93 °C.
Take `Nc1cc(C(=O)O)cc(S(N)(=O)=O)c1Nc1cccc(C(F)(F)F)c1`: the melting point was in the range of 273 to 274 °C.
`COc1cc(C=Cc2ccccc2)ccc1O`: the melting point was in the range of 132 to 134 °C.
The molecule `CN1C(=O)CC[C@]2(C)c3ccc(C=Cc4cnc5ccccc5c4)cc3CC[C@@H]12` had a melting point of 181 to 183 °C.
`CC(C)(C)OC(=O)N[C@@H](Cc1ccc(O)cc1)C(=O)N[C@H](Cc1ccccc1)C(=O)NCC(=O)OCc1ccccc1` displayed a melting point of 169 °C.
Consider `CCOP(=O)(/C=C/c1cn(-c2ccccc2)nc1OCc1ccc(OCc2nc(-c3ccc(C)c(C(=O)OC)c3)oc2C)c(OC)c1)OCC`, for which the melting point lay within 121 to 122 °C.
As to `CCc1cc(C#N)sc1-c1ccc2c(c1)C(C)(C)OC(=O)N2`, the melting point lay in the range of 160 to 162 °C.
Consider `CC(C)n1nc(-c2c(-c3ccccc3)nn3ccc(O)cc23)ccc1=O`, for which the melting point is more than 250 °C.
`CS(=O)(=O)c1ccc(-c2cnn(CC(F)(F)F)c(=O)c2NC2CCCO2)cc1` (stereo not given) yielded a melting point of 128 to 129 °C.
Turning to `N#CCc1cc2cc(Br)ccc2s1`, the melting point was 94 to 96 °C.
Take `C=CCOc1ccc(C(=O)OC2CCC(CCCCCCC(=O)C(=C)C)CC2)cc1` (stereo not given): the melting point is 50 °C.
The molecule `CCCNC(=O)c1nc2n(c1C)CCc1ccccc1C2OC1CCN(C)CC1` (stereo not given) registered a melting point of 60 °C.
Take `CC1=C(C(=O)NC(C)(C)C)C(c2ccccc2Cl)C(C(=O)OC(C)C)=C(COCCCc2nc3ccccc3n2C)N1` (stereo not given): the melting point was found to be 216 °C.
`O=C(O)C(O)c1ccccc1[N+](=O)[O-]` (stereo not given) gave a melting point of 137 to 139 °C.
`C=CCn1nc(OCC(=O)c2cccs2)c(-c2ccc(F)cc2)c1-c1ccc(S(C)(=O)=O)cc1` yielded a melting point of 146 to 148 °C.
With `COc1ccc(Nc2ncnc3occ(C)c23)cc1` the figure was 99 to 102 °C; with `CCC1CC(=Cc2ccc(N(CC)CC)cc2)C(=O)C(=Cc2ccc(N(CC)CC)cc2)C1` (stereo not given), 141 °C; with `CCc1cc2oc3cc(-c4ccccc4Cl)c4c(c3c2cc1OC)C(=O)NC4=O`, 252 to 257 °C.
`O=C(O)c1cccc(NC(=O)C(CS)Cc2ccccc2)c1` (stereo not given): the melting point fell in the range of 178 to 180 °C.
`O=C(O)c1c(-c2ccccc2)oc2ccccc2c1=O` had a melting point of 298 to 300 °C.
In the case of `CCCc1nc2c(N)ncc(Br)c2n1CCOCCNC(=O)NC1CCCCC1`, the melting point lay in the range of 185 to 186 °C.
On to `COC(=O)NC1CCc2ccc(Cl)cc2C1=O` (stereo not given), for which the melting point is 126 to 127 °C.
In turn, `COc1ccc(C(=O)c2ccc(=O)[nH]c2C)cc1` showed a melting point of 228 to 230 °C.
As to `CCNc1cccc(NC(=O)COC(C)=O)c1C#N`, the melting point lay in the range of 110 to 113 °C.
As to `COc1cc(COc2nn(-c3ccccc3)cc2C=O)ccc1OCc1nc(N2CCOCC2)sc1C`, the melting point was in the range of 149 to 150 °C.
Under `NC(=O)c1ncn2c(-c3cc(Cl)ccc3Cl)ccnc12` stands 230 to 234 °C; under `CCCCc1nc2c(N)nc3c(c2n1CC(C)C)NCCC3`, 143 to 147 °C.
With `Cn1ncc2c1CC(C)(C)C(C=O)C2=O` (stereo not given), the melting point lay within 131 to 132 °C.
In turn, `Cc1cc(=O)[nH]c(=S)n1C1CCCCC1` had a melting point of 240 to 243 °C.
Turning to `O=c1cccccc1S`, the melting point came out at 55 °C.
`CCN(CC)CC(=O)OC1CC2(C)C(C(C)=O)CCC2C2CCC3CC(O)C(SC#N)CC3(C)C12` (stereo not given): the melting point lay within 173 to 180 °C.
With `COC(=O)c1cc(OCc2ccccc2)ccc1O` the figure was 108 to 112 °C.
`CC1(C)SC(c2cc3ccccc3o2)NC1C(=O)O` (stereo not given) gave a melting point of 96 °C.
For the molecule `COc1ccc(Cc2cc(S)ccc2OC)cc1`, the melting point was 78 °C.
With `Nc1cccc(C(=O)O)c1NCc1ccccc1Cl` the figure was 203 to 204 °C.
`CS(=O)(=O)NCCn1c(CCO)nc2c(N)nc3cccnc3c21` registered a melting point of 136 to 138 °C.
`C/C(=C\c1ccc(C(F)(F)F)cc1)C(=O)Nc1cc(Cl)ccc1C(=O)O` registered a melting point of 228 to 229 °C.
Molecule `Nc1nc(-c2ccccc2)nc2c1ncc(=O)n2C1CC(O)C(CO)O1` (stereo not given) yielded a melting point of 169 to 172 °C.
In turn, `COC(=O)C1=C(C)NC2(O)COC(=O)C2C1c1cccc([N+](=O)[O-])c1` (stereo not given) registered a melting point of 147 to 149 °C.
Under `CON=C(C(=O)OC)c1cccc(OCc2ccccc2)c1` stands 62 to 63 °C.
`CS(=O)(=O)c1ncc2n1-c1ccc(Cl)cc1C(c1ccccc1F)=[N+]([O-])C2`: the melting point fell in the range of 219 to 220 °C.
Under `CCN(CC)C(=O)c1cc(C(C)(C)C)ccc1-c1ccc(OC)cc1` stands 89 to 92 °C; under `O=C1c2ccccc2CNc2nc3ccc(Br)cc3c(Cl)c21`, 260 to 264 °C.
With `CC(C)(C)OC(=O)Nc1cc(OC(C)(C)C)c(I)cc1[N+](=O)[O-]` the figure was 94 °C.
With `COc1cc(S(C)(=O)=O)ccc1OCc1ccc(C2CCN(C(=O)OC(C)(C)C)CC2)cn1` the figure was 135 to 138 °C; with `CCOC(=O)c1cnc2ncnn2c1Cl`, 130 to 132 °C.
As to `OC1(c2ccc(Cl)cc2)CN(C(c2ccccc2)c2ccccc2)C1`, the melting point is 108 °C.
The molecule `CC(C)(C(=O)Nc1cc(F)ccc1F)N1COC(C=O)=C(c2ccccc2)C1=O` came in with a melting point of 76 to 77.5 °C.
`O=[N+]([O-])c1cccc(Cn2ccnc2)c1` showed a melting point of 97 to 98 °C.
With `CN1CC2Cc3ccc(Cl)cc3C(=O)C2C1` (stereo not given) the figure was 148 to 150 °C.

The record behind these values is a melting point compilation (Tetko et al.; mined from patent text by program, amines drawn as free bases though some values may be those of a salt).
